Experimental data reported in PMC8228819, “Comparison of a Short Linear Antimicrobial Peptide with Its Disulfide-Cyclized and Cyclotide-Grafted Variants against Clinically Relevant Pathogens” (Microorganisms, 2021).
Values after ≈ are worked out from the molar mass of the structure shown. Like-named read-outs stand apart in the source and are kept apart here. Bridge positions count the residues as written; N and C are the ends. Peptide text beside a SMILES is read from it.

Tests used:
[1] = tested on: Staphylococcus aureus, epidemic methicillin-resistant EMRSA-15; format: cell-based; conditions: for MIC: single measurement (asterisk)
Protocol: (§1) The following strains were used in this study: Escherichia coli, ATCC 25922, Staphylococcus aureus, epidemic methicillin-resistant EMRSA-15, Klebsiella pneumoniae, clinical isolate from St George’s, University of London (SGUL, London, UK), Acinetobacter baumannii, clinical isolate from SGUL, Pseudomonas aeruginosa, PA01 wildtype strain, and Enterococcus faecalis, vancomycin-resistant ATCC 51299.
(§2) The minimal inhibitory concentration (MIC) was determined in a microdilution assay using Mueller–Hinton (MH) or Brain Heart Infusion Broth (BHI) broth following a previously published protocol. Briefly, a twofold serial dilution of the antibiotics and peptides were prepared and added to a bacteria solution, resulting in 2–5 10^5 CFU/mL. The microtiter plates (polypropylene, Corning, Corning, NY, USA) were incubated for 18 h at 37 °C and MICs were taken visually. Based on our experience with proline rich peptides, their low activity in Mueller–Hinton broth, and their strong activity in diluted broth, we decided to also measure the activity of the peptide set in a 1/5 dilution of the broth. MICs in the presence of serum were established using human serum (Zen-Bio, Durham, NC, USA) and heat-inactivated serum (Sigma-Aldrich, St. Louis, MO, USA). A total of 20% (v/v) of each human serum was mixed with bacterial solution and added to predetermined concentrations of antibiotics and peptides, resulting in a final 10% (v/v) concentration of serum and 2–5 × 10^5 bacteria.

[2] = tested on: Acinetobacter baumannii, clinical isolate from SGUL; format: cell-based
Protocol: as §1, §2

[3] = tested on: Pseudomonas aeruginosa, PA01 wildtype strain; format: cell-based
Protocol: as §1, §2

[4] = tested on: Klebsiella pneumoniae, clinical isolate from St George's, University of London; format: cell-based
Protocol: as §1, §2

[5] = tested on: Enterococcus faecalis, vancomycin-resistant ATCC 51299; format: cell-based
Protocol: as §1, §2

[6] = tested on: Escherichia coli, ATCC 25922; format: cell-based
Protocol: as §1, §2

[7] = Serum stability assay; format: in vitro ADME, human; conditions: 100% human serum
Protocol: (§3) Serum stability assays were performed in 100% human serum (Sigma-Aldrich, St. Louis MO, USA, human male AB plasma). Serum was centrifuged to remove lipids and incubated with the peptides at 100 μM for 0, 0.5, 1, 3, 6, and 24 h at 37 °C. Serum proteins were precipitated by adding 3 μL of TFA to 40 μL of peptide – serum sample (final TFA 7%). The remaining supernatant was diluted with 50:50 solvent A/B. The amount of peptide remaining (%) was quantified by UPLC-MS analysis. For pH stability experiments, peptides were incubated at a concentration of 20 μM at pH 1.2 and 7.5 for 24 h, and stability was monitored by UPLC analysis.

[8] = tested on: E. coli (ATCC 25922); test: Time kill assay; format: cell-based, Escherichia coli; conditions: 1/5 (20%) MH broth, 3 times the MIC, 1 × 10^6 CFU/mL, 37 °C, 10-1440 min, three experiments
Protocol: Overnight culture of E. coli (ATCC 25922) was diluted for approximately two hours to achieve logarithmic phase. The logarithmic phase inoculum was then adjusted to 1 × 10^6 CFU/mL in 20% MH broth. Within a 1.5 mL microfuge tube (STARLAB (UK) Limited, Milton Keynes, UK), the peptides were added to the inoculum at a concentration that was threefold the MIC against E coli. The tubes were placed in a shaking incubator (225 rpm) at 37 °C. At predetermined time points between 0 and 24 h: 10, 20, 40, 60, 120, 240, and 1440 min for the peptides, and for the untreated control: 0, 60, 120, 240, and 1080 min, 100 µl samples were taken out. Furthermore, a 1 in 10 dilution series using sterile 10 mM Tris buffer (pH 7.5) was performed using the removed sample, then 5 × 5 µL were spotted for each dilution onto MH agar plates and incubated at 37 °C. The next day, the colonies were counted and the colony forming units, CFU/mL for each time point, were determined.

[9] = pH stability; format: physicochemical; conditions: 20 μM, pH 1.2 and 7.5, 24 h, UPLC
Protocol: as §3

[10] = tested on: ESKAPE pathogens (E. faecalis, S. aureus, K. pneumoniae, A. baumannii, P. aeruginosa, E. coli); test: MIC summary over the ESKAPE panel; format: cell-based
Protocol: as §1, §2

[11] = ratio of MICs (fold loss of activity in serum)

CC[C@H](C)[C@H](NC(=O)CN)C(=O)NCC(=O)N[C@@H](C)C(=O)N[C@H](C(=O)N[C@@H](CC(C)C)C(=O)N[C@@H](CCCCN)C(=O)N[C@H](C(=O)N[C@@H](CC(C)C)C(=O)N[C@H](C(=O)N[C@H](C(=O)NCC(=O)N[C@@H](CC(C)C)C(=O)N1CCC[C@H]1C(=O)N[C@@H](C)C(=O)N[C@@H](CC(C)C)C(=O)N[C@H](C(=O)N[C@@H](CO)C(=O)N[C@@H](Cc1c[nH]c2ccccc12)C(=O)N[C@H](C(=O)N[C@@H](CCCCN)C(=O)N[C@@H](CCCNC(=N)N)C(=O)N[C@@H](CCCCN)C(=O)N[C@@H](CCCNC(=N)N)C(=O)N[C@@H](CCC(N)=O)C(=O)N[C@@H](CCC(N)=O)C(N)=O)[C@@H](C)CC)[C@@H](C)CC)[C@@H](C)O)[C@@H](C)O)C(C)C)C(C)C [Melittin, reference compound]
MIC ([1]; 1/5 MH + 10% heat inactivated human serum): 1.4 µM
MIC ([1]; 1/5 MH + 10% human serum): 1.4 µM
MIC ([1]; 1/5 MH): 0.7 µM (≈ 1.99 µg/mL)
MIC ([1]; MH): 4 µM (≈ 11.4 µg/mL)

CC[C@H](C)[C@@H]1NC(=O)[C@@H]2CSSC[C@@H]3NC(=O)[C@H](Cc4c[nH]c5ccccc45)NC(=O)[C@H]([C@@H](C)CC)NC(=O)[C@H]([C@@H](C)CC)NC(=O)[C@H](Cc4c[nH]c5ccccc45)NC(=O)[C@H](CCCNC(=N)N)NC(=O)[C@H](C(C)C)NC(=O)[C@H](CCCNC(=N)N)NC(=O)[C@H](CCCNC(=N)N)NC(=O)[C@H](CCCCN)NC(=O)[C@@H]4CSSC[C@H](NC(=O)[C@H](CC(=O)O)NC(=O)[C@H](CO)NC(=O)[C@H](CC(=O)O)NC(=O)[C@H](CCCNC(=N)N)NC(=O)[C@H](CCCNC(=N)N)NC(=O)[C@H](CSSC[C@H](NC1=O)C(=O)N[C@@H](CCCNC(=N)N)C(=O)NCC(=O)N[C@@H](CC(N)=O)C(=O)NCC(=O)N[C@@H](Cc1ccc(O)cc1)C(=O)N4)NC(=O)[C@H](CCCCN)NC(=O)[C@H](CCCCN)NC(=O)[C@H](CC(C)C)NC(=O)[C@H]([C@@H](C)CC)NC(=O)[C@H](CCCCN)NC(=O)[C@@H]1CCCN1C3=O)C(=O)N1CCC[C@H]1C(=O)NCC(=O)N[C@@H](C)C(=O)N2 [[L6-optP7]Mco] (cyclo(ACICRGNGYCKRRVRWIIWCPKILKKCRRDSDCPG); disulfide 2-20, 4-27, 10-33)
Ratio of MIC of cyclized peptide version over MIC of the linear peptide optP7 ([2]; 1/5 MH): 5
Ratio of MIC of cyclized peptide version over MIC of the linear peptide optP7 ([2]; 1/5 MH + 10% human serum): 10.3
Improvement of activity when diluting the broth ([2]; 1/5 MH versus MH): 15.5 fold
Ratio of MIC of cyclized peptide version over MIC of the linear peptide optP7 ([2]; MH): 41.3
Ratio 1/5 MH + 10% serum/ 1/5MH ([2]; ratio of MICs): 7.75
Ratio 1/5 MH + 10% serum/ 1/5MH ([1]; ratio of MICs): >7.8
Ratio of MIC of cyclized peptide version over MIC of the linear peptide optP7 ([3]; 1/5 MH): 10.0
Ratio of MIC of cyclized peptide version over MIC of the linear peptide optP7 ([3]; 1/5 MH + 10% human serum): 1.3
Improvement of activity when diluting the broth ([3]; 1/5 MH versus MH, Table 2 data): 7.8 fold
Improvement of activity in diluted media ([3]; 1/5 MH versus MH, fractions of Table 1): 7.8 fold
Ratio of MIC of cyclized peptide version over MIC of the linear peptide optP7 ([3]; MH): 20.6
Ratio 1/5 MH + 10% serum/ 1/5MH [3, 11]: 1
Ratio of MIC of cyclized peptide version over MIC of the linear peptide optP7 ([4]; 1/5 MH): 20.7
Improvement of activity when diluting the broth ([4]; 1/5 MH versus MH): 2 fold
Ratio of MIC of cyclized peptide version over MIC of the linear peptide optP7 ([4]; MH): 41.3
Ratio of MIC of cyclized peptide version over MIC of the linear peptide optP7 ([5]; 1/5 BHI): 18.8
Ratio of MIC of cyclized peptide version over MIC of the linear peptide optP7 ([5]; 1/5 BHI + 10% human serum): 2.6
Ratio 1/5 BHI + 10% serum/ 1/5BHI ([5]; ratio of MICs): 4.1
Ratio of MIC of cyclized peptide version over MIC of the linear peptide optP7 ([6]; 1/5 MH + 10% human serum): 18.8
Improvement of activity when diluting the broth ([6]; 1/5 MH versus MH): 31 fold
Ratio of MIC of cyclized peptide version over MIC of the linear peptide optP7 ([6]; 1/5 MH, average used for an MIC range): 3.3
Ratio of MIC of cyclized peptide version over MIC of the linear peptide optP7 ([6]; MH): 77.5
Ratio 1/5 MH + 10% serum/ 1/5MH [6, 11]: 7.5
Increase in stability against degradation in 100% human serum compared to the linear variant [7]: 33 fold
remaining at 24 h, 100 μM ([7]; male, 100% human serum (human male AB plasma), 100 μM, 37 °C, 24 h, UPLC-MS, read-out: Peptide still present after 24 h in human serum): ~30%
Kinetics of killing [8]: drastically slower acting
pH stability [9]: minor signs of degradation after 24 h at low pH
Average activity decrease, lower than for c-opt7 [10]: 1.6 fold
Average activity decrease factor compared to linear optP7 ([10]; all conditions of Table 3): 15.5 fold
Antimicrobial activity in broth (in words) ([10]; undiluted broth): medium to weak
